Experimental data reported in patent US12004538B2, “Method for improving meat quality” (CAN TECHNOLOGIES, INC., priority 2017, dated 2024).
Like-named read-outs stand apart in the source and are kept apart here.

Key:
[1] = young piglets
[2] = Procedure: (§1) The trial was conducted in the grower-finisher unit 1 and 2 of Cargill Innovation Center Velddriel, The Netherlands. Pigs were allocated with 64 days of age. A randomized block design was used using 6 treatments divided over 48 pens by using 8 weight blocks in total. A pen was the experimental unit. Each pen contained 4 animals. Barrows and gilts were equally distributed among treatments. The experiment consisted of a 3×2 factorial design with three different levels of Bolifor™ CNFR (calcium nitrate) and with and without heat stress, with 8 replications per treatment (Table 1). During phase 1 (day 0 to day 24, i.e., d0-24) a common diet was fed. In phase 2 (d24-56) and phase 3 (d56-101) pigs were fed one of the 6 experimental diets (pellet form).
Feed intake and body weight were measured at day 0, 24, 39, 59, 83 and 101. Ultrasound measurements were made at day 24, 59 and 101. To get more insight on metabolic defenses when pigs are submitted to heat stress, urine samples were taken at experimental day 84 (105 kg average BW) in the morning from the control animals (16 animals) in the heat stress group and the non-heat stressed group to measure pH, and calcium and phosphorus content. The pH was measured right after collection. During the first three weeks of heat stress skin temperature was measured daily with an infrared device (Testo 845). From 3 weeks onwards, skin temperature was measured weekly.
For comparison of the different treatments, the parameters ADG, ADFI and Feed conversion ratio (FRC) (all normally distributed) were subjected to Mixed Model analysis, using SAS JMP (Version 9.0, SAS Institute Inc., Cary, NC, 2008) according to the following statistical model: Yijk=μ+αi+βj+(αβ)ij+Sexk+δi1+BW24m+εijklm Where, • μ=population mean; • αi=main effect of temperature/room i (A), i=1, 2; • βj=main effect of calcium nitrate level j (B), j=1, 2, 3; • Sex1=random effect of sex, 1=barrow, gilt; • BW24m=BW at day 24 (covariable) • (αβ)ij is the interaction effect of A and B; for each j and for each i • δik˜Niid(0, s^2a) is the whole plot (block) error, k=1, 2, . . . , 8; • εijk˜Niid(0, s^2e) is the sub plot (pen) error, k=1, 2, . . . , 8. Linear and quadratic contrast for calcium nitrate level was tested. Differences between treatment means were assumed to be significant based on the probability of P<0.05 (Student t-test); unless other probability value is stated.

[3] = cited from earlier work
longissimus muscle = conditions: for L* day 2 / a* day 2 / b* day 2 / pH* day 2: 24 hours after slaughter; for L* day 1 / a* day 1 / b* day 1: day of slaughter
Procedure: as §1
At slaughter, meat samples were taken to measure meat color. Color was evaluated at the longissimus muscle for L* (lightness), a* (redness), and b* (yellowness) values using a Minolta spectrophotometer. The first measurement was taken 3 hours postmortem and the second measurement 24 hours after first measurement. At the time of the 2nd color measurement, pH was also measured.

[4] = for Carcass yield: HCW divided by live weight
Procedure: as §1
On day 83 of the trial one pig per pen was removed and transported to a commercial processing plant. On day 102, pigs were weighed and transported to a commercial processing plant (Compaxo, Zevenaar, The Netherlands). Each pig received an ear tag according to pen number to allow for data retrieval by pen and carcass data collection at the packing plant. Hot carcass weights (HCW) were measured immediately after evisceration and each carcass was evaluated for backfat, loin depth, and lean percentage. Fat depth and loin depth were measured with an optical probe inserted between 3rd and 4th last rib. Lean percentage was provided from the packing plant by using a proprietary equation. Percentage yield was calculated by dividing HCW by live weight obtained before transport to the packing plant.
Temperature, humidity and ventilation were automatically controlled. During phase 1 (from experimental day 0 until 24) pigs were not submitted to heat stress conditions. From experimental day 32 onwards pigs in Unit 2 were exposed to heat stress conditions (total period length of 66 days). During this period of heat stress the temperature was raised to 30° C. (from 8 AM-6 PM) and decreased to 26° C. from 6 PM-8 AM. During the heat stress period the relative humidity was kept at 80% in Unit 2 and the minimum ventilation was adjusted according to the body weight of the pigs.

[5] = grower-finisher pigs, nitrate in the water
[6] = heat stress, nitrate 0.063% in diet
[7] = heat stress, nitrate 0.1% in diet
[8] = normal temperature, nitrate 0.063% in diet
[9] = normal temperature, nitrate 0.1% in diet
[10] = 0.063% nitrate inclusion in feed

O=[N+]([O-])[O-].O=[N+]([O-])[O-].[Ca+2] [Nitrate, calcium nitrate]
adverse effects on performance ([1]; feed dose titration 0.2, 0.4, 0.6, 0.8 and 1.0% calcium nitrate): no adverse effects
met-hemoglobin ([1]; highest level of calcium nitrate inclusion): stayed well within levels considered as safe
effect of calcium nitrate level on weight ([2]; day 83 and 101, P<0.05): quadratic effect
FCR ([2]; overall period (24-101 days), nitrate level 1 (0.063%), heat stress conditions, tendency P=0.09): better FCR
FCR with increasing level of calcium nitrate in the diet ([2]; phase 2 (d24-59) and whole trial (d24-101), P<0.05): linearly increased
effect of calcium nitrate level on ADG ([2]; phase 3 (d59-101), P<0.10): tended to show a quadratic effect
effect of calcium nitrate level on ADFI ([2]; phase 3 and whole trial, P<0.05): quadratic effect
effect of calcium nitrate level on ADG ([2]; whole trial (d24-101), P<0.05): quadratic effect
effect on hemoglobin or met-hemoglobin in the blood [3, 5]: no effect
effect on meat and liver NO content and on meat color, smell or taste [3, 5]: no effect
level of nitrate in swine feed that can be dosed safely ([3]; swine feed): ≥ 0.1%
L* day 2 (longissimus muscle; [6]): 55.5
a* day 2 (longissimus muscle; [6]): 9.5
b* day 2 (longissimus muscle; [6]): −0.4
pH* day 2 (longissimus muscle; [6]): 5.36
L* day 2 (longissimus muscle; [7]): 55.1
a* day 2 (longissimus muscle; [7]): 9.8
b* day 2 (longissimus muscle; [7]): −0.7
pH* day 2 (longissimus muscle; [7]): 5.35
L* day 2 (longissimus muscle; [8]): 53.5
a* day 2 (longissimus muscle; [8]): 9.8
b* day 2 (longissimus muscle; [8]): −1.0
pH* day 2 (longissimus muscle; [8]): 5.60
L* day 2 (longissimus muscle; [9]): 53.7
a* day 2 (longissimus muscle; [9]): 9.9
b* day 2 (longissimus muscle; [9]): −0.9
pH* day 2 (longissimus muscle; [9]): 5.58
L* day 1 (longissimus muscle; [6]): 43.1
a* day 1 (longissimus muscle; [6]): 7.0
b* day 1 (longissimus muscle; [6]): −1.5
L* day 1 (longissimus muscle; [7]): 42.5
a* day 1 (longissimus muscle; [7]): 7.1
b* day 1 (longissimus muscle; [7]): −1.6
L* day 1 (longissimus muscle; [8]): 42.5
a* day 1 (longissimus muscle; [8]): 7.3
b* day 1 (longissimus muscle; [8]): −1.5
L* day 1 (longissimus muscle; [9]): 43.0
a* day 1 (longissimus muscle; [9]): 7.2
b* day 1 (longissimus muscle; [9]): −1.4
parameter a* at day 2 with increasing level of calcium nitrate in the diet (longissimus muscle; main effect of nitrate level, P=0.012): linearly increased
pH values in longissimus dorsi, main effect of nitrate (longissimus muscle; pig, in vivo): no significant effects
carcass yield, rank among treatments [4, 10]: highest
slaughter weight, rank among treatments [4, 10]: lowest slaughter weight
effect of nitrate level on carcass yield ([4]; P<0.05): quadratic effect
effect of nitrate level on full weight ([4]; P<0.05): quadratic effect
effect of nitrate level on slaughter weight ([4]; P<0.05): quadratic effect
Backfat [4, 6]: 18.7 mm
Carcass weight [4, 6]: 100.2 kg
Lean meat [4, 6]: 56.1%
Muscle [4, 6]: 68.6 mm
Slaughter weight [4, 6]: 122.8 kg
Weight full [4, 6]: 125.0 kg
Carcass yield [4, 6]: 81.7%
Backfat [4, 7]: 18.9 mm
Carcass weight [4, 7]: 101.2 kg
Lean meat [4, 7]: 55.9%
Muscle [4, 7]: 68.5 mm
Slaughter weight [4, 7]: 124.9 kg
Weight full [4, 7]: 127.6 kg
Carcass yield [4, 7]: 81.2%
carcass weight compared to the other treatments ([4]; normal temperature, 0.063%): higher carcass weight
Backfat [4, 8]: 20.3 mm
Carcass weight [4, 8]: 105.1 kg
Lean meat [4, 8]: 55.0%
Muscle [4, 8]: 67.8 mm
Slaughter weight [4, 8]: 126.0 kg
Weight full [4, 8]: 128.2 kg
Carcass yield [4, 8]: 83.6%
Backfat [4, 9]: 16.8 mm
Carcass weight [4, 9]: 99.5 kg
Lean meat [4, 9]: 57.4%
Muscle [4, 9]: 69.3 mm
Slaughter weight [4, 9]: 127.3 kg
Weight full [4, 9]: 129.6 kg
Carcass yield [4, 9]: 78.3%
